Measured values as given in patent publication US20240139185A1, “COMPOUNDS THAT PARTICIPATE IN COOPERATIVE BINDING AND USES THEREOF” (Revolution Medicines, Inc., priority 2018, published 2024).

Key:
[1] = target: cyclophilin A (CYPA) (Homo sapiens, UniProt P62937); test: CYPA-compound binary complex formation by SPR; details: read-out: CYPA Binding Affinity
Protocol: In order to determine the affinity of compounds of the invention for cyclophilin A (CYPA), we employed surface plasmon resonance binding analysis using the following reagents, instruments and protocol as supplied by the instrument manufacturer.
Reagents and Instrument • 1. Instrument: Biacore S200 (GE Healthcare Life Sciences) • 2. Running buffer: 1×HBS-P+ (1×HBS supplemented with 0.05% Tween20), pH7.4, and 2% DMSO. • 3. Ligand: CypA-Avi • 4. Analyte: Serial dilution of WDB compounds from 50 μM to 0 μM, 2-fold dilution, 10 points (10 mM stock concentration). • 5. Sensor kit: Biotin CAPture Kit (BR28-9202-34, GE Healthcare Life Sciences) • 6. Regeneration buffer: 1 volume of 1 M NaOH and 3 volumes of 8 M guanidine hydrochloride (supplied with CAPture Kit, BR28-9202-34, GE Healthcare Life Sciences)
Experimental Procedure • 1. Capture of CAPreagent: 2 μl/min for 60 seconds. • 2. Immobilization of ligand CypA: Use Fc1 as the reference cell; immobilize CypA at 4 μg/ml using 5 μl/min flowrate on Fc2 (60s), Fc3 (80s) and Fc4 (80s), respectively. • 3. Binding of analytes: Inject WDB compound dilutions sequentially at 50 μl/min for association of 60 seconds. And then let it dissociates in buffer at 50 μl/min for 60 seconds. • 4. Regeneration: 2 injections of regeneration buffer at 30 μl/min for 60 seconds to regenerate the chip surface. • 5. Solvent correction: Run solvent correction at beginning and the end of the run. If run more than 6 compounds, add additional solvent correction every 6 compounds. • 6. Data fitting with built-in Biacore Evaluation Software: Steady-state fitting.

[2] = target: T1, BRAF-GTP-KRAS-G12C complex (Homo sapiens, UniProt P01116+P62937, G12C); test: KRAS-BRAF complex disruption through competition with CYPA-compound by TR-FRET; details: biochemical BRAF-KRAS G12C-GTP disruption assay EC50, with CYPA
T1 construct: 50 nM of His6-KRas G12C-GTP (1-169); 500 nM of tagless CypA (1-165)
Protocol: In this example, TR-FRET was used to measure the compound-facilitated disruption of a KRAS-BRAF complex. A mixture of tagless Cyclophilin A, His6-KRAS G12C-GMP-PNP, and GST-BRAF RAS binding domain was added to a 384-well assay plate containing compounds of the invention and incubated for 3 hours. A mixture of Anti-His Eu-W1024 and anti-GST allophycocyanin was then added and the reaction was incubated for an additional 1.5 hours. TR-FRET signal was read on an EnVision microplate reader (Perkin Elmer, Ex 320 nm, Em 665/615 nm). Compounds that facilitate disruption of a KRAS_BRAF complex were identified as those eliciting a decrease in the TR-FRET ratio relative to DMSO control wells. To determine the presenter-dependence of the compound-mediated KRAS-BRAF complex disruption, Cyclophilin A was left out of the initial incubation (see Table 5). To determine G12C specificity of the compound-mediated KRAS-BRAF complex disruption, wild-type KRAS was used instead of G12C KRAS (see Table 5).
Reagents and Instrument • Tagless CYPA; 519 μM in PBS buffer, pH 7.4 • GST BRAF; 110 μM in PBS buffer, pH 7.4 • His6-KRASG12C-GMP-PNP; 50 μM in PBS buffer, pH 7.4 • His6-KRASWT-GMP-PNP; 40 μM in PBS buffer, pH 7.4 • Anti-His Eu-W1024 (LANCE® Eu-W1024; Perkin Elmer) • Anti-GST allophycocyanin (Anti-GST IgG conjugated to SureLight®-Allophycocyanin; Perkin Elmer; Product Number AD0059G) • Test compounds, 10 mM in 100% DMSO • EnVision (Perkin Elmer) • Combi MultiDrop liquid dispenser with 8-channel small volume cassette • 384-well ProxiPlate (black)
Experimental Protocol • 1. Use Mosquito to dispense 100 nL/well of compounds (varying concentration in […]) into 384-well black ProxiPlate to make assay-ready-plate (ARP). • 2. Make assay buffer containing 25 mM Hepes pH 7.3, 100 mM NaCl, 5 mM MgCl2, 0.05% BSA, and 0.002% Tween-20. • 3. Make PRE-MIX A: delivers final concentrations of 50 nM of His6-KRas G12C-GTP (1-169) and 500 nM of tagless CypA (1-165) in assay buffer. • a. For presenter dependence experiments, omit addition of tagless CypA • b. For G12C/wt specificity experiments, substitute His6-KRas WT-GTP (1-169) for His6-KRas G12C-GTP (1-169) • 4. Use MultiDrop Combi to dispense PRE-MIX A into ARP, 7 μl/well. Incubate 3 hr at room temperature. • 5. Make PRE-MIX B: delivers final concentrations of 10 nM of anti-His Eu-W1024 and 50 nM of anti-GST APC. • 6. Use MultiDrop Combi to dispense PRE-MIX B into ARP, 3 μl/well. Shake briefly on Combi and incubate 1.5 hr at room temperature. • 7. Read on EnVision (Ex: 320 nm; Em1: 615 nm; Em2: 665 nm). • 8. Data is processed using Dotmatics. Curves are fit using a 4-parameter non-linear fit to determine the EC50 value for formation of the ternary complex.

## CC1CCn2cnc3ccc(cc32)-c2cc(O)cc(c2)CC(NC(=O)C(C(C)C)N(C)C(=O)C2CN(C(=O)CCl)C2)C(=O)N2CCCC(N2)C(=O)O1 (mixture of isomers) [Compound 140]
[1]
  Kd: > 15 µM
[2]
  EC50: 0.5 to 5 µM

## Cc1nc2ccc3cc2n1CC(O)COC(=O)C1CCCN(N1)C(=O)C(NC(=O)C(C(C)C)N(C)C(=O)C1CN(C(=O)CCl)C1)Cc1cc(O)cc-3c1 (mixture of isomers) [Compound 154]
[1]
  Kd: 5 to 15 µM
[2]
  EC50: 0.5 to 5 µM

## CC1COC(=O)[C@@H]2CCCN(N2)C(=O)[C@@H](NC(=O)[C@H](C(C)C)N(C)C(=O)C2CN(C(=O)CCl)C2)Cc2cc(O)cc(c2)-c2ccc3c(C#N)cn(c3c2)C1 (single isomer, unassigned) [Compound 88]
[1]
  Kd: > 15 µM
[2]
  EC50: 0.5 to 5 µM

## C=CC(=O)N1CCN([C@H](C(=O)N[C@H]2Cc3cc(O)cc(c3)-c3ccc4nccc(c4c3)OCCOC(=O)[C@@H]3CCCN(N3)C2=O)C(C)C)C1=O [Compound 2, (2S)-2-(3-acryloyl-2-oxoimidazolidin-1-yl)-N-((6^3S,4S)-2^5-hydroxy-5,7-dioxo-6^1,6^2,6^3,6^4,6^5,6^6-hexahydro-8,11-dioxa-1(6,4)-quinolina-6(1,3)-pyridazina-2(1,3)-benzenacycloundecaphane-4-yl)-3-methylbutanamide]
[1]
  Kd: ≤ 5 µM
[2]
  EC50: > 5 µM

## C=CC(=O)N1CCN([C@H](C(=O)N[C@H]2Cc3cncc(c3)-c3ccc4nc(CC)n(c4c3)CCCOC(=O)[C@@H]3CCCN(N3)C2=O)C(C)C)C1=O [Compound 4, (2S)-2-(3-acryloyl-2-oxoimidazolidin-1-yl)-N-((6^3S,4S)-12-ethyl-5,7-dioxo-6^1,6^2,6^3,6^4,6^5,6^6-hexahydro-1^1H-8-oxa-1(6,1)-benzo[d]imidazola-6(1,3)-pyridazina-2(3,5)-pyridinacycloundecaphane-4-yl)-3-methylbutanamide]
[1]
  Kd: 5 to 15 µM
[2]
  EC50: > 5 µM

## C=CC(=O)N1CCN([C@H](C(=O)N[C@H]2Cc3cc(O)cc(c3)-c3ccc4ccn(c4c3)CCCOC(=O)[C@@H]3CCCN(N3)C2=O)C(C)C)C1=O [Compound 93]
[1]
  Kd: ≤ 5 µM
[2]
  EC50: > 5 µM

## C=CC(=O)N1CCN(C(C(=O)NC2Cc3cc(O)cc(c3)-c3ccc4c(C#N)cn(c4c3)CCCOC(=O)C3CCCN(N3)C2=O)C(C)C)C1=O (stereo not drawn) [Compound 94]
[1]
  Kd: ≤ 5 µM
[2]
  EC50: 0.5 to 5 µM

## C=CC(=O)N1CCN([C@H](C(=O)N[C@H]2Cc3cc(O)cc(c3)-c3ccc4c(CC#N)cn(c4c3)CCCOC(=O)[C@@H]3CCCN(N3)C2=O)C(C)C)C1=O [Compound 96]
[1]
  Kd: ≤ 5 µM
[2]
  EC50: 0.5 to 5 µM

## CC(C)C(C(=O)NC1Cc2cc(O)cc(c2)-c2ccc3c(C#N)cn(c3c2)CC(C)(C)COC(=O)C2CCCN(N2)C1=O)N(C)C(=O)C1CN(C(=O)CCl)C1 (stereo not drawn) [Compound 98]
[1]
  Kd: 5 to 15 µM
[2]
  EC50: ≤ 0.5 µM

## CC(C)C(C(=O)NC1Cc2cc(O)cc(c2)-c2ccc3c(C#N)cn(c3c2)CCCOC(=O)C2CCCN(N2)C1=O)N(C)C(=O)C1CN(C(=O)CCl)C1 (stereo not drawn) [Compound 101]
[1]
  Kd: ≤ 5 µM
[2]
  EC50: 0.5 to 5 µM

## C=CC(=O)N1CCN([C@H](C(=O)N[C@H]2Cc3cc(O)cc(c3)-c3ccc4nc(CC)n(c4c3)CCCOC(=O)[C@@H]3CCCN(N3)C2=O)C(C)C)C1=O [Compound 141]
[1]
  Kd: ≤ 5 µM
[2]
  EC50: 0.5 to 5 µM

## Cc1nc2ccc3cc2n1CC(C)(C)COC(=O)[C@@H]1CCCN(N1)C(=O)[C@@H](NC(=O)[C@H](C(C)C)N(C)C(=O)CN1CC=CC1=O)Cc1cc(O)cc-3c1 [Compound 144]
[1]
  Kd: 5 to 15 µM
[2]
  EC50: > 5 µM

## C=CC(=O)N1CC(C(=O)N(C)[C@H](C(=O)N[C@H]2Cc3cc(O)cc(c3)-c3ccc4nc(C)n(c4c3)CC(C)(C)COC(=O)[C@@H]3CCCN(N3)C2=O)C(C)C)C1 [Compound 145]
[1]
  Kd: 5 to 15 µM
[2]
  EC50: 0.5 to 5 µM

## Cc1nc2ccc3cc2n1CC(C)(C)COC(=O)[C@@H]1CCCN(N1)C(=O)[C@@H](NC(=O)[C@H](C(C)C)N1CCN(C(=O)CCl)CC1=O)Cc1cc(O)cc-3c1 [Compound 146]
[1]
  Kd: 5 to 15 µM
[2]
  EC50: 0.5 to 5 µM

## Cc1nc2ccc3cc2n1C[C@@H](C)COC(=O)[C@@H]1CCCN(N1)C(=O)[C@@H](NC(=O)[C@H](C(C)C)N(C)C(=O)C1CN(C(=O)CCl)C1)Cc1cc(O)cc-3c1 [Compound 148]
[1]
  Kd: > 15 µM
[2]
  EC50: 0.5 to 5 µM

## Cc1nc2ccc3cc2n1CC(C)(C)COC(=O)[C@@H]1CCCN(N1)C(=O)[C@@H](NC(=O)[C@H](C(C)C)N(C)C(=O)CNC(=O)CCl)Cc1cc(O)cc-3c1 [Compound 150]
[1]
  Kd: 5 to 15 µM
[2]
  EC50: 0.5 to 5 µM

## CC1=C(C)C(=O)N(CC(=O)N(C)[C@H](C(=O)N[C@H]2Cc3cc(O)cc(c3)-c3ccc4ncn(c4c3)CCCOC(=O)[C@@H]3CCCN(N3)C2=O)C(C)C)C1=O [Compound 153]
[1]
  Kd: 5 to 15 µM
[2]
  EC50: > 5 µM

## CC(C)[C@@H](C(=O)N[C@H]1Cc2cc(O)cc(c2)-c2ccc3nc(-c4ccccc4C#N)n(c3c2)CCCOC(=O)[C@@H]2CCCN(N2)C1=O)N(C)C(=O)C1CN(C(=O)CCl)C1 [Compound 167]
[1]
  Kd: ≤ 5 µM
[2]
  EC50: 0.5 to 5 µM

## COc1ccccc1-c1nc2ccc3cc2n1CCCOC(=O)[C@@H]1CCCN(N1)C(=O)[C@@H](NC(=O)[C@H](C(C)C)N(C)C(=O)C1CN(C(=O)CCl)C1)Cc1cc(O)cc-3c1 [Compound 168]
[1]
  Kd: ≤ 5 µM
[2]
  EC50: ≤ 0.5 µM

## CC(C)[C@@H](C(=O)N[C@H]1Cc2cc(O)cc(c2)-c2ccc3nc(C4CCOCC4)n(c3c2)CCCOC(=O)[C@@H]2CCCN(N2)C1=O)N(C)C(=O)C1CN(C(=O)CCl)C1 [Compound 170]
[1]
  Kd: 5 to 15 µM
[2]
  EC50: 0.5 to 5 µM

## CC1=C(C)C(=O)N(CC(=O)N(C)[C@H](C(=O)N[C@H]2Cc3cc(O)cc(c3)-c3ccc4nc(C)n(c4c3)CC(C)(C)COC(=O)[C@@H]3CCCN(N3)C2=O)C(C)C)C1=O [Compound 171]
[1]
  Kd: 5 to 15 µM
[2]
  EC50: 0.5 to 5 µM

## C=CC(=O)N1CCN([C@H](C(=O)N[C@H]2Cc3cc(O)cc(c3)-c3ccc4c(=O)n(C)n(c4c3)CCCOC(=O)[C@@H]3CCCN(N3)C2=O)C(C)C)C1=O [Compound 174]
[1]
  Kd: ≤ 5 µM
[2]
  EC50: > 5 µM

## CC(C)[C@@H](C(=O)N[C@H]1Cc2cc(O)cc(c2)-c2ccc3ncn(c3c2)CCCOC(=O)[C@@H]2CCCN(N2)C1=O)N(C)C(=O)C1CN(C(=O)CCl)C1 [Compound 234, 1-(2-chloroacetyl)-N-((2S)-1-(((6^3S,4S)-2^5-hydroxy-5,7-dioxo-6^1,6^2,6^3,6^4,6^5,6-hexahydro-1^1H-8-oxa-1(6,1)-benzo[d]imidazola-6(1,3)-pyridazina-2(1,3)-benzenacycloundecaphane-4-yl)amino)-3-methyl-1-oxobutan-2-yl)-N-methylazetidine-3-carboxamide]
[1]
  Kd: ≤ 5 µM
